Measurements published in US6503881B2 (priority 1996, dated 2003).
Read-outs that look alike come from different tables or passages of the source.

Tested on: bacteria

I L K K W P W W P W R K [MBI 11B4ACN]
MIC (A. calcoaceticus AC002): 4 µg/mL
MIC (E. cloacae ECL007): >128 µg/mL
MIC (E. coli ECO005): 32 µg/mL
MIC (E. faecalis EFS008): 64 µg/mL
MIC (K. pneumoniae KP001): 32 µg/mL
MIC (P. aeruginosa PA004): >128 µg/mL
MIC (S. aureus SA008): 1 µg/mL
MIC (S. epidermidis SE010): 8 µg/mL
MIC (S. maltophilia SMA002): 64 µg/mL
MIC (S. marcescens SMS003): >128 µg/mL

ILKKWPWWPWRRIMILKKAGS [MBI 11D6CN]
MIC (A. calcoaceticus AC002): 4 µg/mL
MIC (E. cloacae ECL007): >32 µg/mL
MIC (E. coli ECO002): 32 µg/mL
MIC (E. faecalis EFS002): 4 µg/mL
MIC (E. faecium EFM003): 1 µg/mL
MIC (K. pneumoniae KP002): >64 µg/mL
MIC (P. aeruginosa PA024): >64 µg/mL
MIC (S. aureus SA009): 8 µg/mL
MIC (S. epidermidis SE010): 4 µg/mL
MIC (S. maltophilia SMA001): >64 µg/mL
MIC (S. marcescens SMS004): >64 µg/mL

I L K K W P W W P W R R I M [MBI 11D13H]
MIC (A. calcoaceticus AC001): 64 µg/mL
MIC (E. cloacae ECL007): >64 µg/mL
MIC (E. coli ECO002): 32 µg/mL
MIC (E. faecalis EFS004): 16 µg/mL
MIC (K. pneumoniae KP002): >64 µg/mL
MIC (P. aeruginosa PA004): >64 µg/mL
MIC (S. aureus SA025): 4 µg/mL
MIC (S. maltophilia SMA002): >64 µg/mL
MIC (S. marcescens SMS004): >64 µg/mL

ILKKWPWWPWRRKMILKKAGS [MBI 11D4CN]
MIC (A. calcoaceticus AC001): >64 µg/mL
MIC (E. cloacae ECL007): >64 µg/mL
MIC (E. coli ECO003): 64 µg/mL
MIC (E. faecalis EFS002): 16 µg/mL
MIC (E. faecium EFM002): 1 µg/mL
MIC (K. pneumoniae KP002): >64 µg/mL
MIC (P. aeruginosa PA004): >64 µg/mL
MIC (S. aureus SA009): 4 µg/mL
MIC (S. maltophilia SMA001): >64 µg/mL
MIC (S. marcescens SMS004): >64 µg/mL

I L K K W P W W P W R R K M [MBI 11D11H]
MIC (A. calcoaceticus AC001): >64 µg/mL
MIC (E. cloacae ECL007): >64 µg/mL
MIC (E. coli ECO002): 32 µg/mL
MIC (K. pneumoniae KP001): >64 µg/mL
MIC (P. aeruginosa PA001): >64 µg/mL
MIC (S. aureus SA008): 4 µg/mL
MIC (S. maltophilia SMA002): >64 µg/mL
MIC (S. marcescens SMS004): >64 µg/mL

I L K K W P W W P W R R K [MBI 11ACN]
MIC (A. calcoaceticus AC002): 2 µg/mL
MIC (E. cloacae ECL007): >128 µg/mL
MIC (E. coli ECO005): 16 µg/mL
MIC (E. faecalis EFS004): 8 µg/mL
MIC (E. faecalis EFS008): 64 µg/mL
MIC (K. pneumoniae KP001): 16 µg/mL
MIC (P. aeruginosa PA004): >128 µg/mL
MIC (S. aureus SA014): 8 µg/mL
MIC (S. epidermidis SE010): 4 µg/mL
MIC (S. maltophilia SMA002): 64 µg/mL
MIC (S. marcescens SMS003): >128 µg/mL

I L K K W P W W P W R R K [MBI 11A]
MIC (A. calcoaceticus AC001): >64 µg/mL
MIC (E. cloacae ECL007): >64 µg/mL
MIC (E. coli ECO005): >64 µg/mL
MIC (E. faecalis EFS004): 32 µg/mL
MIC (K. pneumoniae KP001): 64 µg/mL
MIC (P. aeruginosa PA024): >64 µg/mL
MIC (S. aureus SA002): 4 µg/mL
MIC (S. maltophilia SMA002): >64 µg/mL
MIC (S. marcescens SMS003): >64 µg/mL

I L K K W P W W P W R R K [MBI 11CNW1]
MIC (A. calcoaceticus AC002): 8 µg/mL
MIC (E. cloacae ECL007): 64 µg/mL
MIC (E. coli ECO005): 32 µg/mL
MIC (E. faecalis EFS001): 8 µg/mL
MIC (K. pneumoniae KP001): 32 µg/mL
MIC (P. aeruginosa PA004): 64 µg/mL
MIC (S. aureus SA010): 4 µg/mL
MIC (S. maltophilia SMA002): 32 µg/mL
MIC (S. marcescens SMS003): >128 µg/mL

I L K K W P W W P W R R K [MBI 11CNX1]
MIC (A. calcoaceticus AC001): >64 µg/mL
MIC (E. cloacae ECL007): >64 µg/mL
MIC (E. coli ECO005): 64 µg/mL
MIC (E. faecalis EFS004): 16 µg/mL
MIC (K. pneumoniae KP001): >64 µg/mL
MIC (P. aeruginosa PA024): >64 µg/mL
MIC (S. aureus SA006): 2 µg/mL
MIC (S. maltophilia SMA002): >64 µg/mL
MIC (S. marcescens SMS003): >64 µg/mL

I L K K W P W W P W R R K [MBI 11M4]
MIC (E. faecalis EFS001): 32 µg/mL
MIC (E. faecium EFM001): 32 µg/mL
MIC (S. aureus SA008): 8 µg/mL

I L K K W P W W P W R R K [MBI 11M8]
MIC (E. faecalis EFS002): 32 µg/mL
MIC (E. faecium EFM002): 32 µg/mL
MIC (S. aureus SA008): 32 µg/mL

ILKKWPWWPWRRMILKKAGS [MBI 11D5CN]
MIC (A. calcoaceticus AC001): >64 µg/mL
MIC (E. cloacae ECL007): >64 µg/mL
MIC (E. coli ECO003): 64 µg/mL
MIC (E. faecalis EFS002): 16 µg/mL
MIC (E. faecium EFM003): 1 µg/mL
MIC (K. pneumoniae KP001): >64 µg/mL
MIC (P. aeruginosa PA003): >64 µg/mL
MIC (S. aureus SA005): 8 µg/mL
MIC (S. maltophilia SMA001): 64 µg/mL
MIC (S. marcescens SMS004): >64 µg/mL

I L K K W P W W P W R R M [MBI 11D12H]
MIC (A. calcoaceticus AC001): >64 µg/mL
MIC (E. cloacae ECL007): >64 µg/mL
MIC (E. coli ECO003): 64 µg/mL
MIC (E. faecalis EFS004): 16 µg/mL
MIC (K. pneumoniae KP002): >64 µg/mL
MIC (P. aeruginosa PA004): >64 µg/mL
MIC (S. aureus SA014): 16 µg/mL
MIC (S. maltophilia SMA002): >64 µg/mL
MIC (S. marcescens SMS004): >64 µg/mL

I L K K W P W W P W R R [MBI 11G7ACN]
MIC (A. calcoaceticus AC002): 4 µg/mL
MIC (E. cloacae ECL007): >32 µg/mL
MIC (E. coli ECO002): 16 µg/mL
MIC (E. faecalis EFS008): 32 µg/mL
MIC (E. faecium EFM001): 8 µg/mL
MIC (K. pneumoniae KP002): >32 µg/mL
MIC (P. aeruginosa PA006): >32 µg/mL
MIC (S. aureus SA010): 1 µg/mL
MIC (S. epidermidis SE002): 4 µg/mL
MIC (S. maltophilia SMA001): 32 µg/mL
MIC (S. marcescens SMS004): >32 µg/mL
